Results from paper PMC7587356, “High-Throughput Screening for Inhibitors of the SARS-CoV-2 Protease Using a FRET-Biosensor” (Molecules, 2020).
Structures can show the parent of a compound that is named as a salt. Where two headings read alike, the source gives them in different places.

Molecular target: SARS-CoV-2 3CLpro (Severe acute respiratory syndrome coronavirus 2, UniProt P0DTD1)
Test: biochemical
Format: biochemical
Design: Replicate_1 / Replicate_2 / mean / mean (LOPAC_screen_w_protease): unit not given here
Details: for inhibition at 5 µM: 4 h; for mean (LOPAC screen with protease) / Replicate_1 (LOPAC screen with protease) / Replicate_2 (LOPAC screen with protease): primary screen at 5 µM
[1] = LOPAC1280 primary screen with protease, 5 µM compound, replicate 1, read-out: Replicate_1 (LOPAC_screen_w_protease)
[2] = LOPAC1280 primary screen with protease, 5 µM compound, replicate 2, read-out: Replicate_2 (LOPAC_screen_w_protease)
[3] = LOPAC1280 primary screen with protease, 5 µM compound, mean of two replicates
[4] = sheet LOPAC_screen_w_protease, primary screen with protease, mean of two replicates, read-out: mean
[5] = sheet LOPAC_screen_w_protease, primary screen with protease, replicate 1, read-out: Replicate_1
[6] = sheet LOPAC_screen_w_protease, primary screen with protease, replicate 2, read-out: Replicate_2
[7] = LOPAC1280 primary screen with protease, 5 µM compound, mean of the two replicates
[8] = sheet LOPAC_screen_w_protease, mean of two replicates
[9] = sheet LOPAC_screen_w_protease, replicate 1
[10] = sheet LOPAC_screen_w_protease, replicate 2

Cl.Fc1ccc(CN(C2=NCCN2)c2c(Cl)cccc2Cl)cc1 [IMID-4F hydrochloride]
mean (sheet LOPAC_screen_w_protease, primary screen with protease, 5 µM, mean of two replicates): -0.6347
Replicate_1 (sheet LOPAC_screen_w_protease, primary screen with protease, 5 µM, replicate 1): -0.8698
Replicate_2 (sheet LOPAC_screen_w_protease, primary screen with protease, 5 µM, replicate 2): -0.3997

CC(C)C(=O)c1c(C(C)C)nn2ccccc12 [Ibudilast]
inhibition at 5 µM [1]: 1.64%
inhibition at 5 µM [2]: 1.76%
mean (LOPAC_screen_w_protease) [3]: 1.697

O=C1NC(c2cccc([N+](=O)[O-])c2)=CCN1c1ccccc1O [Icilin]
inhibition at 5 µM (sheet LOPAC_screen_w_protease, primary screen of LOPAC1280 at 5 µM with protease, mean of the two replicates, read-out: mean): 3.88%
inhibition at 5 µM (sheet LOPAC_screen_w_protease, primary screen of LOPAC1280 at 5 µM with protease, replicate 1, read-out: Replicate_1): 4.52%
inhibition at 5 µM (sheet LOPAC_screen_w_protease, primary screen of LOPAC1280 at 5 µM with protease, replicate 2, read-out: Replicate_2): 3.25%

c1ccc2c(c1)OCC(C1=NCCN1)O2 (centres unmarked) [Idazoxan hydrochloride]
inhibition at 5 µM (read-out: Replicate_1 (LOPAC_screen_w_protease)): 1.08%
inhibition at 5 µM (read-out: Replicate_2 (LOPAC_screen_w_protease)): 2.66%

O=C1CCC(c2ccc(-n3ccnc3)cc2)=NN1 [Imazodan]
inhibition at 5 µM (sheet LOPAC_screen_w_protease, primary screen with protease, 5 µM, mean of two replicates, read-out: mean): -0.683%
inhibition at 5 µM (sheet LOPAC_screen_w_protease, primary screen with protease, 5 µM, replicate 1, read-out: Replicate_1): 0.89%
inhibition at 5 µM (sheet LOPAC_screen_w_protease, primary screen with protease, 5 µM, replicate 2, read-out: Replicate_2): -2.26%

N=C(N)SCCc1cnc[nH]1 [Imetit dihydrobromide]
inhibition at 5 µM [4]: 2.25%
inhibition at 5 µM [5]: 1.12%
inhibition at 5 µM [6]: 3.38%

Cl.O=C(O)Cc1c[nH]cn1 [Imidazole-4-acetic acid hydrochloride]
mean (sheet LOPAC_screen_w_protease, LOPAC1280 primary screen at 5 µM, with protease, mean of the two replicates): 0.8241
Replicate_1 (sheet LOPAC_screen_w_protease, LOPAC1280 primary screen at 5 µM, with protease, replicate 1): 2.255
Replicate_2 (sheet LOPAC_screen_w_protease, LOPAC1280 primary screen at 5 µM, with protease, replicate 2): -0.6064

CCn1ccnc1CC1COc2ccccc2O1 (centres unmarked) [Imiloxan hydrochloride]
inhibition at 5 µM (sheet LOPAC_screen_w_protease, primary screen with protease, compound at 5 µM, mean of two replicates, read-out: mean): 3.1%
inhibition at 5 µM (sheet LOPAC_screen_w_protease, primary screen with protease, compound at 5 µM, replicate 1, read-out: Replicate_1): 4.11%
inhibition at 5 µM (sheet LOPAC_screen_w_protease, primary screen with protease, compound at 5 µM, replicate 2, read-out: Replicate_2): 2.09%

CN[C@@H]1C[C@@H](c2ccc(Cl)c(Cl)c2)c2ccccc21 [Indatraline hydrochloride]
inhibition at 5 µM [1]: 1.51%
inhibition at 5 µM [2]: 2.53%
mean (LOPAC_screen_w_protease) [7]: 2.022

O=C1Nc2ccccc2/C1=C1/Nc2ccccc2/C1=N\O [Indirubin-3'-oxime]
mean (LOPAC_screen_w_protease) [3]: 1.392
Replicate_1 (LOPAC_screen_w_protease) (LOPAC1280 primary screen with protease, 5 µM compound, replicate 1): 2.012
Replicate_2 (LOPAC_screen_w_protease) (LOPAC1280 primary screen with protease, 5 µM compound, replicate 2): 0.7725

COc1ccc2c(c1)c(CC(=O)N1CCOCC1)c(C)n2C(=O)c1ccc(Cl)cc1 [Indomethacin morpholinylamide]
inhibition at 5 µM [4]: 2.27%
inhibition at 5 µM [5]: 2.02%
inhibition at 5 µM [6]: 2.53%

COc1ccc2c(c1)c(CC(=O)O)c(C)n2C(=O)c1ccc(Cl)cc1 [Indomethacin]
Replicate_1: 3.273
Replicate_2: 1.395
mean: 2.334

NC(=O)CI [Iodoacetamide]
mean (LOPAC screen with protease) [8]: 17.6073
Replicate_1 (LOPAC screen with protease) [9]: 16.5057
Replicate_2 (LOPAC screen with protease) [10]: 18.7088

CC(C)NC(C)Cc1ccc(I)cc1 (centres unmarked) [Iofetamine hydrochloride]
inhibition at 5 µM (read-out: Replicate_1): 3.54%
inhibition at 5 µM (read-out: Replicate_2): 3.79%
inhibition at 5 µM (read-out: mean): 3.67%

CC(C)[N+]1(C)[C@@H]2CC[C@H]1C[C@@H](OC(=O)C(CO)c1ccccc1)C2 (some centres unmarked) [Ipratropium bromide]
inhibition at 5 µM [1]: 1.02%
inhibition at 5 µM [2]: 1.99%
mean (LOPAC_screen_w_protease) [3]: 1.504

CC(C)NNC(=O)c1ccncc1.O=P(O)(O)O [Iproniazid phosphate]
mean (sheet LOPAC_screen_w_protease, primary screen with protease, compound at 5 µM, mean of two replicates): 2.591
Replicate_1 (sheet LOPAC_screen_w_protease, primary screen with protease, compound at 5 µM, replicate 1): 1.295
Replicate_2 (sheet LOPAC_screen_w_protease, primary screen with protease, compound at 5 µM, replicate 2): 3.887

O=C(O)C1=CCNCC1 [Isoguvacine hydrochloride]
inhibition at 5 µM [1]: 2.64%
inhibition at 5 µM [2]: 1.29%
mean (LOPAC_screen_w_protease) [7]: 1.964

O=C(O)C1CCNCC1 [Isonipecotic acid]
inhibition at 5 µM [1]: 4.55%
inhibition at 5 µM [2]: -0.611%
mean (LOPAC_screen_w_protease) [7]: 1.97

CCC(NC(C)C)C(O)c1ccc(O)c(O)c1.CS(=O)(=O)O (centres unmarked) [Isotharine mesylate]
mean (LOPAC screen with protease) [8]: 8.447
Replicate_1 (LOPAC screen with protease) [9]: 8.4794
Replicate_2 (LOPAC screen with protease) [10]: 8.416

Nc1nc2[nH]c(=O)cnc2c(=O)[nH]1 [Isoxanthopterin]
inhibition at 5 µM [4]: 2.42%
inhibition at 5 µM [5]: 3.73%
inhibition at 5 µM [6]: 1.11%
